Assay [1] has as its target T1, canine TRPM8 (Canis lupus familiaris, UniProt Q1A7N1).
T1 construct: expressed in transfected cells
Description: In vitro canine TRPM8 functional assay (Ca2+-sensitive fluorescent dye, FLIPR or FDSS, icilin challenge). It counts as cell-based. The conditions noted are these: for inhibition at 0.2 µM: 0.2 μM compound. Summed up:
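Cells (HEK293, stable canine TRPM8) are seeded 24 h before assay. They are then dye-loaded with Calcium 3 at 37 °C followed by room temperature. Compound is added and monitored for 5 min, after which icilin (~80% maximal response) is added.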

Assay [2] deals with icilin-induced "wet-dog" shakes (WDS). The assay is described as follows: Inhibition of icilin-induced "wet-dog" shakes in rats. The conditions noted are these: HCl salt, 10 mpk PO, vehicle HPbCD; male Sprague Dawley rats; [1-(test compound WDS count/vehicle WDS count)]x100. It is filed as in vivo. On the procedure:
Male Sprague Dawley rats (220-450 g, Charles River Labs, n=6-9/treatment) were used to evaluate the ability of compounds selected from the group consisting of formula (I) and formula (II) to block icilin-induced “wet-dog” shakes (WDS). Compounds selected from the group consisting of formula (I) and formula (II) were administered in an appropriate vehicle, such as hydroxypropyl-β-cyclodextrin (HPβCD), methocellulose, 10% Solutol, or H2O, or the like, by the appropriate route, i.p. or p.o., 30-120 minutes before icilin. Icilin was administered in PEG-400 or 10% solutol/H2O, at 1.0 or 3.0 mg/kg, i.p. and spontaneous “wet-dog” shakes were counted 10-20 minutes post-icilin. Results are presented as a percent inhibition of shakes, which was calculated as [1−(test compound WDS count/vehicle WDS count)]×100.

Setting [3] is: HEK293 cells stably expressing canine TRPM8, icilin challenge.
Where [4] appears, read: HEK293 cells stably expressing canine TRPM8, icilin at approx. 80% maximal response, eight-point dose-response, single determinations unless otherwise noted, read-out: IC50.

Like-named read-outs stand apart in the source and are kept apart here.

T1 sequence (Q1A7N1 1-1104): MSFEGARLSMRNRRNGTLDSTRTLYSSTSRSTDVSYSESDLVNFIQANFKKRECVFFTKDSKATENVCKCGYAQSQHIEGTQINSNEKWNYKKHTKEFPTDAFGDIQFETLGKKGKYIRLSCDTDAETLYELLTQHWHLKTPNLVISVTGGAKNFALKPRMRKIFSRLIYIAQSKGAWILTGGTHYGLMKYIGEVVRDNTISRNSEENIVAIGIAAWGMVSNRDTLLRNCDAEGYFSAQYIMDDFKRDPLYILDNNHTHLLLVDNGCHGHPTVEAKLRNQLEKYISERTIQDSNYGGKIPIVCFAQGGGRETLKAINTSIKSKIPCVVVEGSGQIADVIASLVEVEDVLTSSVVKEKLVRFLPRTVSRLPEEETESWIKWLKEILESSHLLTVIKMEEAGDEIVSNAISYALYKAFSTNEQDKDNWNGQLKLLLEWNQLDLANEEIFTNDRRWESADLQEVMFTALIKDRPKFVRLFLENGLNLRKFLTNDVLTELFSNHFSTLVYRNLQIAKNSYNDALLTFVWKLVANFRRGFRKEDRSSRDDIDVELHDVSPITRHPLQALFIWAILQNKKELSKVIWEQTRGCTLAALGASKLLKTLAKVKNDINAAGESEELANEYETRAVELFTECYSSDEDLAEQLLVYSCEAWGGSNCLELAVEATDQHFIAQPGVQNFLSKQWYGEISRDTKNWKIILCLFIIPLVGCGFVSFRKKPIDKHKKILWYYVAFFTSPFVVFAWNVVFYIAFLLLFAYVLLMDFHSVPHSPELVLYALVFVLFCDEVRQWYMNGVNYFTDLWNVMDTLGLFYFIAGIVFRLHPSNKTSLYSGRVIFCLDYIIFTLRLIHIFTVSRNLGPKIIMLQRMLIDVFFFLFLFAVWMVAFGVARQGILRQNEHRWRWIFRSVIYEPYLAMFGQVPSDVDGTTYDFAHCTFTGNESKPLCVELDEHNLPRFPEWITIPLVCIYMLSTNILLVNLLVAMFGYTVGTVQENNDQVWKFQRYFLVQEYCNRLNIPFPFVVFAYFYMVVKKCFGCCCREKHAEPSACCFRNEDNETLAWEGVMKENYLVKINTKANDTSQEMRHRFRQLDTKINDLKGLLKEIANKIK

Regarding `Cc1c(N(Cc2ccc(F)c(F)c2)S(=O)(=O)CCN(CC(C)C)CC(C)C)sc2ccccc12` [Cpd 80, N-(3-Methylbenzo[b]thiophen-2-yl)-N-(3,4-difluoro-benzyl)-2-(di-iso-butylamino)ethylsulfonamide], the inhibition at 0.2 µM in assay [1] (setting [3]) worked out at 100%. In addition, the IC50 in assay [1] (setting [4]) was 0.026 µM. Besides, in assay [2], the “% Inhibition (of wet-dog shakes)” value is given as 0%.
On to `Cc1c(N(CCCCC(F)(F)F)S(=O)(=O)CCN(CC(C)C)CC(C)C)sc2ccccc12` [Cpd 78, N-(3-Methylbenzo[b]thiophen-2-yl)-N-(5,5,5-trifluoro-n-pent-1-yl)-2-(di-iso-butylamino)ethylsulfonamide], for which the inhibition at 0.2 µM in assay [1] (setting [3]) was 100%. For the same molecule, in assay [1] (setting [4]), the IC50 was determined as 0.018 µM. For the same molecule, the “% Inhibition (of wet-dog shakes)” value in assay [2] is recorded as 3%.
For `Cc1c(N(Cc2ccc(OC(F)(F)F)cc2)S(=O)(=O)CCN(C)Cc2ccccc2)sc2ccccc12` [Cpd 14, N-(3-Methylbenzo[b]thiophen-2-yl)-N-(4-trifluoromethoxy-benzyl)-2-(benzyl-methylamino)ethylsulfonamide] the same measures were 102%, 0.016 µM and 0%.
For the molecule `Cc1c(N(Cc2ccc(OC(F)(F)F)cc2)S(=O)(=O)CCN2CCC(c3ccccc3)CC2)sc2ccccc12` [Cpd 25, N-(3-Methylbenzo[b]thiophen-2-yl)-N-(4-trifluoromethoxy-benzyl)-2-(4-phenylpiperidin-1-yl)ethylsulfonamide], the IC50 in assay [1] was 0.029 µM; in assay [1] (IC50, determination of HCl salt, HEK293 cells stably expressing canine TRPM8, icilin challenge) it was 0.026 µM. The inhibition at 0.2 µM in assay [1] (setting [3]) and in assay [1] (determination of HCl salt) was 100% each time. Moreover, the “% Inhibition (of wet-dog shakes)” value in assay [2] is 12.7%.
Take `Cc1c(N(Cc2ccc(OC(F)(F)F)cc2)S(=O)(=O)CCN(CC(C)C)CC(C)C)sc2ccccc12` [Cpd 16, N-(3-Methylbenzo[b]thiophen-2-yl)-N-(4-trifluoromethoxy-benzyl)-2-(diisobutylamino)ethylsulfonamide]: the inhibition at 0.2 µM in assay [1] (setting [3]) came out at 101%. Moreover, the IC50 in assay [1] (setting [4]) worked out at 0.006 µM. Besides, the “% Inhibition (of wet-dog shakes)” value in assay [2] came to 0%.
Take `O=S(=O)(CCN1CCSCC1)N(Cc1ccc(OC(F)(F)F)cc1)c1ccc2ccccc2c1` [Cpd 52, N-(Naphth-2-yl)-N-(4-trifluoromethoxy-benzyl)-2-(thiomorpholin-4-yl)ethylsulfonamide]: in assay [1] (setting [3]), the inhibition at 0.2 µM came out at 87%. Moreover, the IC50 in assay [1] (setting [4]) amounted to 0.042 µM.
On to `Cc1c(N(Cc2ccc(OC(F)(F)F)cc2)S(=O)(=O)CCNCC(C)C)sc2ccccc12` [Cpd 73, N-(3-Methylbenzo[b]thiophen-2-yl)-N-(4-trifluoromethoxy-benzyl)-2-(isobutylamino)ethylsulfonamide], for which the inhibition at 0.2 µM in assay [1] (setting [3]) is 19%.
For the molecule `Cc1c(N(Cc2ccc(OC(F)(F)F)cc2)S(=O)(=O)CCN2CC(C)CC(C)C2)sc2ccccc12` (centres unmarked) [Cpd 21, N-(3-Methylbenzo[b]thiophen-2-yl)-N-(4-trifluoromethoxy-benzyl)-2-(3,5-dimethylpiperidin-1-yl)ethylsulfonamide], the inhibition at 0.2 µM in assay [1] (setting [3]) was 100%. Also, in assay [1] (setting [4]), the half-inhibitory concentration (IC50) is 0.052 µM.
The like results for `Cc1c(N(Cc2ccc(OC(F)(F)F)cc2)S(=O)(=O)CCN2CCc3ccccc3C2)sc2ccccc12` [Cpd 40, N-(3-Methylbenzo[b]thiophen-2-yl)-N-(4-trifluoromethoxy-benzyl)-2-(1,2,3,4-tetrahydro-isoquinolin-2-yl)ethylsulfonamide] were, in that order, 100% and 0.029 µM.
On to `Cc1c(N(CCC2CC2)S(=O)(=O)CCN(CC(C)C)CC(C)C)sc2ccccc12` [Cpd 74, N-(3-Methylbenzo[b]thiophen-2-yl)-N-(2-cyclopropyl-ethyl)-2-(diisobutylamino)ethylsulfonamide], for which the inhibition at 0.2 µM in assay [1] (setting [3]) worked out at 100%. Further, the half-maximal inhibitory concentration (IC50) in assay [1] (setting [4]) worked out at 0.017 µM. Further, the “% Inhibition (of wet-dog shakes)” value in assay [2] was 26%.
Turning to `Cc1c(N(Cc2ccc(OC(F)(F)F)cc2)S(=O)(=O)CCN2[C@H](C)CCC[C@@H]2C)sc2ccccc12` [Cpd 22, N-(3-Methylbenzo[b]thiophen-2-yl)-N-(4-trifluoromethoxy-benzyl)-2-(cis-2,6-dimethylpiperidin-1-yl)ethylsulfonamide], the inhibition at 0.2 µM in assay [1] (setting [3]) amounted to 99%. The IC50 in assay [1] (setting [4]) was found to be 0.013 µM.
The like results for `Cc1c(N(Cc2ccc(F)cc2)S(=O)(=O)CCN(CC(C)C)CC(C)C)sc2ccccc12` [Cpd 76, N-(3-Methylbenzo[b]thiophen-2-yl)-N-(4-fluoro-benzyl)-2-(di-iso-butylamino)ethylsulfonamide] were, in that order, 99% and 0.025 µM.
For `Cc1c(N(Cc2ccc(F)c(C(F)(F)F)c2)S(=O)(=O)CCN2CCCC(F)(F)C2)sc2ccccc12` [Cpd 70, N-(3-Methylbenzo[b]thiophen-2-yl)-N-(4-fluoro-3-trifluoromethyl-benzyl)-2-(3,3-difluoropiperidin-1-yl)ethylsulfonamide] the same measures were 100% and 0.004 µM.
On to `CCOC(=O)C1CCN(CCS(=O)(=O)N(CCCCC(F)(F)F)c2sc3ccccc3c2C)CC1` [Cpd 85, N-(3-Methylbenzo[b]thiophen-2-yl)-N-(5,5,5-trifluoropent-1-yl)-2-(4-carboethoxypiperidin-1-yl)ethylsulfonamide], for which, in assay [1] (setting [3]), the inhibition at 0.2 µM was found to be 77%. Also, the 50% inhibitory concentration (IC50) in assay [1] (setting [4]) amounted to 0.081 µM.
With `Cc1c(N(Cc2ccc(OC(F)(F)F)cc2)S(=O)(=O)CCN2CCC(F)(F)CC2)sc2ccccc12` [Cpd 42, N-(3-Methylbenzo[b]thiophen-2-yl)-N-(4-trifluoromethoxy-benzyl)-2-(4,4-difluoropiperidin-1-yl)ethylsulfonamide], the inhibition at 0.2 µM in assay [1] (setting [3]) is 98%. Besides, the IC50 in assay [1] (setting [4]) was 0.017 µM.
The like results for `Cc1c(N(Cc2ccc(OC(F)(F)F)cc2)S(=O)(=O)CCN2CCC(O)C2)sc2ccccc12` (centres unmarked) [Cpd 38, N-(3-Methylbenzo[b]thiophen-2-yl)-N-(4-trifluoromethoxy-benzyl)-2-(3-hydroxypyrrolidin-1-yl)ethylsulfonamide] were, in that order, 99% and 0.03 µM.
For `Cc1c(N(Cc2ccc(OC(F)(F)F)cc2)S(=O)(=O)CCN2CCCC(C(F)(F)F)C2)sc2ccccc12` (centres unmarked) [Cpd 24, N-(3-Methylbenzo[b]thiophen-2-yl)-N-(4-trifluoromethoxy-benzyl)-2-(3-trifluoromethylpiperidin-1-yl)ethylsulfonamide] the same measures were 99% and 0.027 µM.
For `O=S(=O)(CCN1CCSCC1)N(Cc1ccc(OC(F)(F)F)cc1)c1sc2ccccc2c1Br` [Cpd 66, N-(3-Bromobenzo[b]thiophen-2-yl)-N-(4-trifluoromethoxy-benzyl)-2-(thiomorpholin-4-yl)ethylsulfonamide] the same measures were 100% and 0.029 µM.
As to `Cc1c(N(Cc2ccc(OC(F)(F)F)cc2)S(=O)(=O)CCN2CCCC2C)sc2ccccc12` (centres unmarked) [Cpd 37, N-(3-Methylbenzo[b]thiophen-2-yl)-N-(4-trifluoromethoxy-benzyl)-2-(2-methylpyrrolidin-1-yl)ethylsulfonamide], the inhibition at 0.2 µM in assay [1] (setting [3]) came out at 100%. In assay [1] (setting [4]), the IC50 stood at 0.02 µM.
The like results for `CCC(=O)N(CCS(=O)(=O)N(CCCCC(F)(F)F)c1sc2ccccc2c1C)CC(C)C` [Cpd 90, N-(3-Methylbenzo[b]thiophen-2-yl)-N-(5,5,5-trifluoro-n-pent-1-yl)-2-(N-propionoyl-isobutylamino)ethylsulfonamide] were, in that order, 92% and 0.044 µM.

The record behind these values is US8148422B2, “Sulfonamides as TRPM8 modulators” (Janssen Pharmaceutica, NV, priority 2008, dated 2012).
